Assays:
[1] = system: Dextran Sulphate Sodium Induced Colitis Mouse Model; test: Dextran sulphate sodium induced colitis mouse model, IL-6 and MIP-2 in colon tissue homogenates (ELISA); format: in vivo, C57BL/6 mice; conditions: 3.5% DSS in drinking water 5 days
Text: Two groups (n=24 each) of adult C57BL/6 mice (Jackson Laboratories, Bar Harbour, Me., USA), conventionally raised (CR) and bacteria-depleted (BD) mice, were used to induce colitis. All animals were housed within a 12-h light/dark cycle and had access to mouse chow and water ad libitum.
At 6 weeks of age, conventionally colonised mice were housed under conventional conditions with untreated water (CR group) whilst mice in the BD group were fed an antibiotic cocktail in their drinking water for 2 weeks. Kanamycin (8 mg/ml), Gentamicin (0.7 mg/ml), Colistin (34,000 U/ml), Metronidazole (4.3 mg/ml) and Vanacomycin (0.9 mg/ml) comprised the antibiotic cocktail. Concentrations of antibiotics in the water were calculated based on the average water consumed by age group.
At 8 weeks of age, intestinal colitis was induced by feeding 3.5% DSS (Dextran Sulphate Sodium) (MP Biomedicals, Aurora, Ohio, USA) in drinking water for 5 days in all mice of both groups (CR and BD). At 10 weeks of age, half the mice of each group started receiving Bimuno (5 g/L) for 7 days. At the end of week 10, the animals were euthanized and their colons were harvested for analysis.
Murine IL-6 and MIP-2 cytokines were analysed by ELISA (Quantikine, R&D Systems, Minn., USA) on colon tissue homogenates according to manufacturer's instructions. Briefly, the proximal colons for each group were collected and homogenised with PBS homogenising buffer containing 1% Triton X-100 supplemented with a cocktail of protease inhibitors. The homogenised solutions were centrifuged at 12,000 rpm for 10 min, and the supernatants were separated into aliquots and stored at −70° C.

[2] = system: T84 cells; test: Effect of B-GOS on TNF-α induced IL-8 secretion in T84 cells (ELISA); format: cell-based, human; conditions: TNF-α 10 ng/mL, vs untreated, p<0.001
Procedure: (§1) Intestinal epithelial cells were grown to confluence in 24-well plates from an initial concentration of 5×10^5 cells/mL. When the cells reached 70% confluence, they were treated in quadruplicate as follows: (i) negative control, (ii) TNF-α (10 ng/mL) positive control, (iii) B-GOS (5 g/L) and (iv) TNF-α (10 ng/mL) with B-GOS (5 g/L). A concentration of 5 g/L of oligosaccharides was used since this is the physiological concentration of oligosaccharides found in human milk. After 16 hours, supernatants were collected and stored at −20° C. for IL-8 and MIP-3α secretion to be determined later by ELISA. In following experiments, TNF-α was replaced by IL1β or flagellin.
Quantitation of IL-8. The IL-8 concentration was measured by ELISA as described previously (Claud E C, Savidge T, Walker W A 2003 Modulation of human intestinal epithelial cell IL-8 secretion by human milk factors. Pediatr Res 53:419-425). […] The reaction was stopped with 100 μL 2N H2SO4 and the absorbance was read at 490 nm. The concentration of IL-8 in the samples was calculated from the IL-8 standard curve. […]
Statistical analysis. […] Gene expression data obtained by qRT-PCR was expressed as the mean with SE. […]

[3] = system: NCM-460 cells; test: Effect of B-GOS on IL-8 and MIP-3α secretion in NCM-460 cells (ELISA); format: cell-based, human; conditions: TNF-α 10 ng/mL, vs untreated, p<0.001
Procedure: as §1
Quantitation of IL-8. The IL-8 concentration was measured by ELISA as described previously (Claud E C, Savidge T, Walker W A 2003 Modulation of human intestinal epithelial cell IL-8 secretion by human milk factors. Pediatr Res 53:419-425). […] The reaction was stopped with 100 μL 2N H2SO4 and the absorbance was read at 490 nm. The concentration of IL-8 in the samples was calculated from the IL-8 standard curve.
Quantitation of MIP-3α. The amount of MIP-3α secretion was measured by ELISA similar to IL-8, except that the plate was coated overnight with 100 μL 2.0 μg/mL mouse anti-human MIP-3α monoclonal antibody. […] The concentration of MIP-3α in the samples was calculated from the MIP-3α standard curve. […]

[4] = system: NCM-460 cells; test: Effect of B-GOS on induction of cytokine transcription (qRT-PCR of IL-8, MIP-3α, MCP-1 mRNA); format: cell-based, human; conditions: TNF-α 10 ng/mL, 18 hours, p<0.001
Procedure: Effect of B-GOS on induction of cytokine transcription. NCM-460 cells were grown to confluence in 6-well plates from an initial concentration of 5×10^5 cells/mL. When the cells reached 70% confluence, they were treated as follows in quadruplicate: (i) negative control, (ii) TNF-α or IL1β or flagellin (10 ng/mL) positive control, and (iii) TNF-α or IL1β or flagellin (10 ng/mL) with B-GOS (5 g/L). After 18 hours, total cellular RNA was isolated by Trizol-chloroform extraction. Using the SuperScript III Platinum SYBR Green One-Step qRT-PCR kit, the mRNA expression of IL-8, MIP-3α and MCP-1 was measured on a MJ Opticon 2 and standardized to mRNA expression of GAPDH.
Statistical analysis. Induction of cytokines was standardized to the positive control with error bars representing standard error (SE). Comparisons between groups were performed using a two-tailed Student's t test. Gene expression data obtained by qRT-PCR was expressed as the mean with SE. Comparisons between groups were performed using a Student's two-tailed t test after logarithmic transformation. A p value <0.05 was considered statistically significant and indicated by an asterisk (*), a p value <0.01 was indicated by two asterisks (**) and a p value <0.001 was indicated by three asterisks (***).

[5] = system: NF-κB p65 protein; test: Effect of B-GOS on NF-κB translocation (immunofluorescence); format: cell-based, human; conditions: NCM-460 cells, TNF-α 10 ng/mL alone, 30 minutes
Procedure: Effect of B-GOS on NF-KB translocation. NCM-460 cells were grown to 70% confluency on cover slips and treated in duplicate for 10 or 30 minutes as follows: (i) negative control, (ii) TNF-α (10 ng/mL) positive control, and (iii) TNF-α (10 ng/mL) with B-GOS (5 g/L). The medium was removed and the cells were fixed in 4% paraformaldehyde. After permeabilization with methanol and blocking with 10% goat serum in 0.25% BSA in TBS, the cells were probed with rabbit anti-human NF-κB p65 polyclonal antibody. After washing, the cells were incubated with CyTM 3-conjugated goat anti-rabbit antibody. The cover slips were then washed and mounted on a glass slide to be visualized under the microscope (Nikon Eclipse TE2000-S).

Substance | induction of IL-6 secretion by DSS ([1]; BD mice, p<0.0001) [fold] | induction of MIP-2 secretion by DSS ([1]; BD mice, p=0.0005) [fold] | induction of IL-6 secretion by DSS ([1]; conventional mice, p<0.0001) [fold] | induction of MIP-2 secretion by DSS ([1]; conventional mice, p<0.0001) [fold] | increase of IL-8 secretion upon TNF-α stimulation [2] [fold] | increase of IL-8 secretion upon TNF-α stimulation [3] [fold] | increase of MIP-3α secretion upon TNF-α stimulation [3] [fold] | increase of IL-8 mRNA expression upon TNF-α stimulation [4] [fold] | increase of MIP-3α mRNA expression upon TNF-α stimulation [4] [fold] | nuclear translocation of NF-κB p65 upon TNF-α stimulation [5]
Dextran Sulphate Sodium [DSS] | 6.2 | 27.2 | 2.2 | 8.3 | – | – | – | – | – | –
TNF-α | – | – | – | – | 4.9 | 58.8 | 25.0 | 12.2 | 99.4 | clearly translocated into the nuclei

Source: patent publication US20120058972A1, “NOVEL USE” (priority 2009, published 2012)
